The values below come from PubChem BioAssay AID330 (DTP/NCI, 2004).

“And” between values parts separate entries of the source, which are not always exact repeats. Identical values can stand only once. Toxic doses and inconclusive results are not listed.

In the assay the test system is P388 leukemia ip, CD2F1 mice, survival T/C. In words: NCI In Vivo Anticancer Drug Screen. Data for tumor model P388 Leukemia (intraperitoneal) in CD2F1 (CDF1) mice. As to conditions: endpoint: median survival time, higher = longer survival. The procedure, abridged: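 Mice carrying the transplanted tumor received test compound or vehicle. Survival was recorded in each group, and the value is the treated-group measurement divided by that of the vehicle-treated control group.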

Setting [1] is: dose: 50.0 mg/kg/injection, schedule: Q01DX005 (ip), vehicle: Klucel (hydroxypropylcellulose) (HPC).
[2] abbreviates: dose: 100.0 mg/kg/injection, schedule: Q01DX005 (ip), vehicle: Klucel (hydroxypropylcellulose) (HPC).
Where [3] appears, read: dose: 200.0 mg/kg/injection, schedule: Q01DX005 (ip), vehicle: Klucel (hydroxypropylcellulose) (HPC).
[4] abbreviates: dose: 50.0 mg/kg/injection, schedule: Q01DX005 (ip), vehicle: saline with Tween-80.
Where [5] appears, read: dose: 100.0 mg/kg/injection, schedule: Q01DX005 (ip), vehicle: saline with Tween-80.
Where [6] appears, read: dose: 200.0 mg/kg/injection, schedule: Q01DX005 (ip), vehicle: saline with Tween-80.
The mark [7] stands for this setting: dose: 60.0 mg/kg/injection, schedule: Q01DX005 (ip), vehicle: saline with Tween-80.
Setting [8] is: dose: 120.0 mg/kg/injection, schedule: Q01DX005 (ip), vehicle: saline with Tween-80.
Setting [9] is: dose: 240.0 mg/kg/injection, schedule: Q01DX005 (ip), vehicle: saline with Tween-80.
The mark [10] stands for this setting: dose: 50.0 mg/kg/injection, schedule: Q01DX009 (ip), vehicle: saline.
[11] abbreviates: dose: 100.0 mg/kg/injection, schedule: Q01DX009 (ip), vehicle: saline.
The mark [12] stands for this setting: dose: 200.0 mg/kg/injection, schedule: Q01DX009 (ip), vehicle: saline.
Where [13] appears, read: dose: 100.0 mg/kg/injection, schedule: Q01DX001 (ip), vehicle: Klucel (hydroxypropylcellulose) (HPC).
The mark [14] stands for this setting: dose: 60.0 mg/kg/injection, schedule: Q01DX005 (ip), vehicle: Klucel (hydroxypropylcellulose) (HPC).
Where [15] appears, read: dose: 120.0 mg/kg/injection, schedule: Q01DX005 (ip), vehicle: Klucel (hydroxypropylcellulose) (HPC).
The mark [16] stands for this setting: dose: 240.0 mg/kg/injection, schedule: Q01DX005 (ip), vehicle: Klucel (hydroxypropylcellulose) (HPC).
The mark [17] stands for this setting: dose: 50.0 mg/kg/injection, schedule: Q01DX009 (ip), vehicle: Klucel (hydroxypropylcellulose) (HPC).
Setting [18] is: dose: 100.0 mg/kg/injection, schedule: Q01DX009 (ip), vehicle: Klucel (hydroxypropylcellulose) (HPC).

As for `COC(=O)n1c(=O)oc2c(Br)cc(Br)cc21`, the T/C was 103 % of control under setting [1], 106 % of control under setting [2] and 103 % of control under setting [3].

For `O=c1[nH]c(=O)n(C2OC(CO)C(O)C2O)c(NNc2ccccc2)c1NNc1ccccc1` (stereo unspecified), the T/C is, setting by setting: under setting [4], 97 % of control; under setting [5], 111 % of control; under setting [6], 117 % of control.

For the molecule `CCCn1c(CC)nc([N+](=O)[O-])c1Sc1ncn[nH]1`, the T/C runs as follows: (dose: 25.0 mg/kg/injection, schedule: Q01DX005 (ip), vehicle: Klucel (hydroxypropylcellulose) (HPC)) 123 % of control; under setting [1], 108 % of control; under setting [3], 113 % of control.

As for `CC(C)CCCN(CCCC(C)C)CC(O)c1cc2c(c3ccccc13)CCCC2` (stereo unspecified), the T/C by setting is: under setting [4], 113 % of control; under setting [5], 103 % of control; under setting [6], 113 % of control.

Consider `Nc1nc(N)c(N=O)c(Nc2ccc(Cl)c(Cl)c2)n1`, for which the T/C runs as follows: (dose: 100.0 mg/kg/injection, schedule: Q04DX003 (ip), vehicle: saline with Tween-80) 100 % of control; (dose: 200.0 mg/kg/injection, schedule: Q04DX003 (ip), vehicle: saline with Tween-80) 90 % of control.

For `CS/C(N)=N/NC(=O)CCC(=O)Nc1cc(C)ccc1C`, the T/C by setting is: (dose: 100.0 mg/kg/injection, schedule: Q04DX002 (ip), vehicle: saline with Tween-80) 102 % of control; (dose: 200.0 mg/kg/injection, schedule: Q04DX002 (ip), vehicle: saline with Tween-80) 101 % of control; (dose: 400.0 mg/kg/injection, schedule: Q04DX002 (ip), vehicle: saline with Tween-80) 90 % of control.

As for `COc1ccc(CC(N)c2ccc(OC)c(OC)c2)cc1O` (stereo unspecified), the T/C is 114 % of control under setting [7], 100 % of control under setting [8] and 97 % of control under setting [9].

As for `Nc1nc2c(c(=O)[nH]1)CNC2=O`, the T/C is, setting by setting: (dose: 25.0 mg/kg/injection, schedule: Q01DX009 (ip), vehicle: saline) 112 % of control; under setting [10], 116 % of control; under setting [11], 113 % of control.

Regarding `CCOC(=O)CNC1=NCCO1`, the T/C reads like this: under setting [10], 109 % of control; under setting [11], 107 % of control; under setting [12], 102 % of control; (dose: 400.0 mg/kg/injection, schedule: Q01DX009 (ip), vehicle: saline) 106 % of control.

Turning to `CCOC(=O)C(Cc1ccc(Oc2nc3ccccc3o2)cc1)NC(C)=O` (stereo unspecified), the T/C runs as follows: (dose: 25.0 mg/kg/injection, schedule: Q01DX001 (ip), vehicle: Klucel (hydroxypropylcellulose) (HPC)) 110 % of control; (dose: 50.0 mg/kg/injection, schedule: Q01DX001 (ip), vehicle: Klucel (hydroxypropylcellulose) (HPC)) 112 % of control; under setting [13], 109 % of control.

Consider `Nc1snnc1C(=S)NC=S`, for which the T/C is, setting by setting: (dose: 100.0 mg/kg/injection, schedule: Q01DX001 (ip), vehicle: saline) 102 % of control; (dose: 200.0 mg/kg/injection, schedule: Q01DX001 (ip), vehicle: saline) 105 % of control; (dose: 400.0 mg/kg/injection, schedule: Q01DX001 (ip), vehicle: saline) 100 % of control.

Regarding `Cn1c(=O)c2c(ncn2C2C(=O)NNC2=O)n(C)c1=O`, the T/C reads like this: under setting [13], 100 % of control; (dose: 200.0 mg/kg/injection, schedule: Q01DX001 (ip), vehicle: Klucel (hydroxypropylcellulose) (HPC)) 93 % of control; (dose: 400.0 mg/kg/injection, schedule: Q01DX001 (ip), vehicle: Klucel (hydroxypropylcellulose) (HPC)) 94 % of control.

In the case of `O=c1[nH]cc(CCCc2ccccc2)c(=O)[nH]1`, the T/C under setting [14] was 102 % of control, the T/C under setting [15] was 95 % of control and the T/C under setting [16] was 95 % of control.

In the case of `CC1(c2ccccc2)OC(=O)C=CC1=O` (stereo unspecified), the T/C reads like this: under setting [7], 110 % of control; under setting [8], 104 % of control; under setting [9], 108 % of control.

Regarding `O=C(/C=C/c1ccccc1)c1ccccc(=O)c1O`, the T/C by setting is: under setting [1], 105 % of control; under setting [2], 113 % of control; under setting [3], 104 % of control.

As to `O=C(NC(=S)c1ccc(Br)cc1)NS(=O)(=O)c1ccccc1`, the T/C was 107 % of control (dose: 100.0 mg/kg/injection, schedule: Q01DX001 (ip), vehicle: saline with Tween-80); 102 % of control (dose: 200.0 mg/kg/injection, schedule: Q01DX001 (ip), vehicle: saline with Tween-80); 102 % of control (dose: 400.0 mg/kg/injection, schedule: Q01DX001 (ip), vehicle: saline with Tween-80).

On to `O=C(Cn1nnc(N2CCOCC2)n1)N/N=C/c1ccccc1Cl`, for which the T/C was 91 % of control under setting [14], 87 % of control under setting [15] and 87 % of control under setting [16].

Consider `Cc1onc(-c2c(F)cccc2Cl)c1C(=O)OCc1c(F)cccc1Cl`, for which the T/C reads like this: under setting [7], 99 % of control; under setting [8], 97 % of control; under setting [9], 97 % of control.

Turning to `Nc1ccc2c(NCCCCCCNc3c4ccccc4nc4cc(N)ccc34)c3ccccc3nc2c1`, for the setting “dose: 0.63 mg/kg/injection, schedule: Q01DX009 (ip), vehicle: other”, the T/C was 122 % of control.

Take `N#Cc1ccc(C(=O)C=C(C(F)(F)F)C(F)(F)F)cc1`: the T/C by setting is: (dose: 3.13 mg/kg/injection, schedule: Q01DX009 (ip), vehicle: other) 115 % of control; (dose: 5.56 mg/kg/injection, schedule: Q01DX009 (ip), vehicle: other) 120 % of control.

With `O=C(O)/C=C\C(=O)O.OO.[O]=[V]`, the T/C reads like this: (dose: 3.75 mg/kg/injection, schedule: Q01DX005 (ip), vehicle: saline with Tween-80) 100 % of control; (dose: 15.0 mg/kg/injection, schedule: Q01DX005 (ip), vehicle: saline with Tween-80) 109 % of control.

Take `N=C(N)Sc1ccccn1`: the T/C runs as follows: under setting [11], 94 % of control; under setting [12], 101 % of control.

Take `CCOC(=O)CC1(C)C(=O)CCCC1=O`: the T/C was 101 % of control (dose: 100.0 mg/kg/injection, schedule: Q04DX003 (ip), vehicle: saline); 100 % of control (dose: 200.0 mg/kg/injection, schedule: Q04DX003 (ip), vehicle: saline); 100 % of control (dose: 400.0 mg/kg/injection, schedule: Q04DX003 (ip), vehicle: saline).

With `CCCNC(=O)c1ccccc1C(=O)NC1(C(=O)NCCC)CCCC1`, the T/C runs as follows: under setting [4], 97 % of control; under setting [5], 96 % of control; under setting [6], 96 % of control.

Take `Cc1nnc2n1N=C1CC(C)(C)CC(=O)C1S2` (stereo unspecified): the T/C is, setting by setting: (dose: 50.0 mg/kg/injection, schedule: Q01DX009 (ip), vehicle: saline with Tween-80) 101 % of control; (dose: 100.0 mg/kg/injection, schedule: Q01DX009 (ip), vehicle: saline with Tween-80) 102 % of control; (dose: 200.0 mg/kg/injection, schedule: Q01DX009 (ip), vehicle: saline with Tween-80) 94 % of control.

With `CN1Cc2c(N)cccc2C(c2ccccc2)C1` (stereo unspecified), the T/C runs as follows: under setting [17], 96 % of control; under setting [18], 105 % of control.

Turning to `CCCCNC1=C(Cl)C(=O)c2ccccc2C1=O`, the T/C by setting is: under setting [17], 92 % of control; under setting [18], 92 % of control; (dose: 200.0 mg/kg/injection, schedule: Q01DX009 (ip), vehicle: Klucel (hydroxypropylcellulose) (HPC)) 91 % of control; (dose: 400.0 mg/kg/injection, schedule: Q01DX009 (ip), vehicle: Klucel (hydroxypropylcellulose) (HPC)) 105 % of control.

With `COc1cc(C(C)c2cc3c(cc2OCCO)OCO3)cc(OC)c1OC` (stereo unspecified), the T/C is 92 % of control and 94 % of control (dose: 25.0 mg/kg/injection, schedule: Q01DX005 (ip), vehicle: saline with Tween-80); 161 % of control and 180 % of control (dose: 400.0 mg/kg/injection, schedule: Q01DX005 (ip), vehicle: saline with Tween-80).

Take `CNC(C)C#N` (stereo unspecified): the T/C is 94 % of control (dose: 3.75 mg/kg/injection, schedule: Q01DX005 (ip), vehicle: saline); 100 % of control (dose: 7.5 mg/kg/injection, schedule: Q01DX005 (ip), vehicle: saline); 102 % of control (dose: 15.0 mg/kg/injection, schedule: Q01DX005 (ip), vehicle: saline).
